Reference: patent US10597388B2, “Pyridazinone herbicides” (FMC CORPORATION, priority 2014, dated 2020)

Assays:
Experiment in all cases: Test E greenhouse herbicide test, pre- and postemergence
Type in all cases: in vivo
[1] = test system: nightshade (eastern black nightshade, Solanum ptycanthum); conditions: Preemergence
Summary of the method: (§1)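 Compounds in a non-phytotoxic solvent mixture with surfactant were applied preemergence to seeds in silt loam soil and postemergence to 2-18 cm plants (1- to 4-leaf stage) in peat-based medium. After 14 to 21 d in a greenhouse, injury was rated visually against untreated controls on a 0 (no effect) to 100 (complete control) scale.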

[2] = test system: horseweed (Conyza canadensis)
Summary of the method: as §1

[3] = test system: pigweed, palmer (palmer pigweed, Amaranthus palmeri)
Summary of the method: as §1

[4] = test system: dayflower (Virginia (VA) dayflower, Commelina virginica)
Summary of the method: as §1

[5] = test system: field bindweed (Convolvulus arvensis)
Summary of the method: as §1

[6] = test system: foxtail, green (green foxtail, Setaria viridis); conditions: Preemergence
Summary of the method: as §1

[7] = test system: arrowleaf sida (Sida rhombifolia)
Summary of the method: as §1

[8] = test system: panicum, fall (fall panicum, Panicum dichotomiflorum)
Summary of the method: as §1

[9] = test system: ragweed (common ragweed, Ambrosia elatior)
Summary of the method: as §1

[10] = test system: goosegrass (Eleusine indica); conditions: Preemergence
Summary of the method: as §1

[11] = test system: lambsquarters (Chenopodium album); conditions: Preemergence
Summary of the method: as §1

[12] = test system: surinam grass (Brachiaria decumbens); conditions: Preemergence
Summary of the method: as §1

[13] = test system: barnyardgrass (Echinochloa crus-galli)
Summary of the method: as §1

corn (Zea mays) = test system: corn (Zea mays)
Summary of the method: as §1

soybean (Glycine max) = test system: soybean (Glycine max)
Summary of the method: as §1

[14] = test system: crabgrass, Brazilian (Brazilian crabgrass, Digitaria horizontalis)
Summary of the method: as §1

[15] = 62 g ai/ha, scale 0 to 100 (0 no effect, 100 complete control)
[16] = 125 g ai/ha, scale 0 to 100 (0 no effect, 100 complete control)
[17] = 31 g ai/ha, scale 0 to 100, 0 no effect, 100 complete control
[18] = 250 g ai/ha, visual, scale 0 no effect to 100 complete control
[19] = 62 g ai/ha, Preemergence, scale 0 to 100 (0 no effect, 100 complete control)
[20] = Preemergence, 31 g ai/ha, scale 0 to 100, 0 no effect, 100 complete control
[21] = Preemergence, 125 g ai/ha, visual, scale 0 no effect to 100 complete control
[22] = Preemergence, 250 g ai/ha, visual, scale 0 no effect to 100 complete control
[23] = 125 g ai/ha, Preemergence, scale 0 to 100 (0 no effect, 100 complete control)
[24] = 125 g ai/ha, visual, scale 0 no effect to 100 complete control
[25] = 125 g ai/ha, Postemergence, scale 0 to 100 (0 no effect, 100 complete control)
[26] = 250 g ai/ha, Postemergence, scale 0 to 100 (0 no effect, 100 complete control)

Structure (SMILES): CC(=O)Oc1c(C)nn(C)c(=O)c1-c1c(C)sc2c(C)cc(C)cc12 [Compound 27]
- Plant response rating, Nightshade [1, 15]: 100
- Plant response rating, Nightshade [1, 16]: 95
- Plant response rating, Nightshade [1, 17]: 90
- Plant response rating, Nightshade [1, 18]: 98
- Plant response rating, Horseweed [2, 19]: 100
- Plant response rating, Horseweed [2, 20]: 100
- Plant response rating, Horseweed [2, 21]: 100
- Plant response rating, Horseweed [2, 22]: 100
- Plant response rating, Pigweed, Palmer [3, 19]: 60
- Plant response rating, Pigweed, Palmer [3, 23]: 85
- Plant response rating, Pigweed, Palmer [3, 22]: 85
- Plant response rating, Dayflower, VA [4, 19]: 10
- Plant response rating, Dayflower, VA [4, 20]: 0
- Plant response rating, Dayflower, VA [4, 21]: 30
- Plant response rating, Dayflower, VA [4, 22]: 65
- Plant response rating, Field Bindweed [5, 19]: 40
- Plant response rating, Field Bindweed [5, 20]: 0
- Plant response rating, Field Bindweed [5, 21]: 70
- Plant response rating, Field Bindweed [5, 22]: 70
- Plant response rating, Foxtail, Green [6, 15]: 100
- Plant response rating, Foxtail, Green [6, 17]: 75
- Plant response rating, Foxtail, Green [6, 24]: 100
- Plant response rating, Foxtail, Green [6, 18]: 100
- Plant response rating, Arrowleaf Sida [7, 19]: 65
- Plant response rating, Arrowleaf Sida [7, 20]: 40
- Plant response rating, Arrowleaf Sida [7, 21]: 75
- Plant response rating, Arrowleaf Sida [7, 22]: 35
- Plant response rating, Panicum, Fall [8, 19]: 100
- Plant response rating, Panicum, Fall [8, 23]: 100
- Plant response rating, Panicum, Fall [8, 20]: 100
- Plant response rating, Panicum, Fall [8, 22]: 100
- Plant response rating, Ragweed [9, 19]: 95
- Plant response rating, Ragweed [9, 23]: 100
- Plant response rating, Ragweed [9, 20]: 95
- Plant response rating, Ragweed [9, 22]: 100
- Plant response rating, Goosegrass [10, 15]: 75
- Plant response rating, Goosegrass [10, 17]: 35
- Plant response rating, Goosegrass [10, 24]: 80
- Plant response rating, Goosegrass [10, 18]: 85
- Plant response rating, Lambsquarters [11, 15]: 100
- Plant response rating, Lambsquarters [11, 17]: 100
- Plant response rating, Lambsquarters [11, 24]: 100
- Plant response rating, Lambsquarters [11, 18]: 100
- Plant response rating, Surinam Grass [12, 15]: 95
- Plant response rating, Surinam Grass [12, 16]: 100
- Plant response rating, Surinam Grass [12, 17]: 85
- Plant response rating, Surinam Grass [12, 18]: 100
- Plant response rating, Barnyardgrass [13, 19]: 50
- Plant response rating, Barnyardgrass [13, 20]: 15
- Plant response rating, Barnyardgrass [13, 21]: 80
- Plant response rating, Barnyardgrass [13, 22]: 95
- Plant response rating, Corn (corn (Zea mays); [19]): 0
- Plant response rating, Corn (corn (Zea mays); [20]): 0
- Plant response rating, Corn (corn (Zea mays); [21]): 0
- Plant response rating, Corn (corn (Zea mays); [22]): 0
- Plant response rating, Soybean (soybean (Glycine max); [19]): 0
- Plant response rating, Soybean (soybean (Glycine max); [23]): 0
- Plant response rating, Soybean (soybean (Glycine max); [20]): 0
- Plant response rating, Soybean (soybean (Glycine max); [22]): 0
- Plant response rating, Crabgrass, Brazil [14, 19]: 70
- Plant response rating, Crabgrass, Brazil [14, 20]: 70
- Plant response rating, Crabgrass, Brazil [14, 21]: 95
- Plant response rating, Crabgrass, Brazil [14, 22]: 95

Structure (SMILES): CCC(=O)Oc1c(C)nn(C)c(=O)c1-c1c(C)sc2c(C)cc(C)cc12 [Compound 28]
- Plant response rating, Nightshade [1, 15]: 98
- Plant response rating, Nightshade [1, 16]: 98
- Plant response rating, Nightshade [1, 17]: 80
- Plant response rating, Nightshade [1, 18]: 100
- Plant response rating, Horseweed [2, 19]: 100
- Plant response rating, Horseweed [2, 25]: 80
- Plant response rating, Horseweed [2, 26]: 80
- Plant response rating, Horseweed [2, 20]: 100
- Plant response rating, Horseweed [2, 21]: 100
- Plant response rating, Horseweed [2, 22]: 98
- Plant response rating, Pigweed, Palmer [3, 19]: 65
- Plant response rating, Pigweed, Palmer [3, 25]: 50
- Plant response rating, Pigweed, Palmer [3, 23]: 95
- Plant response rating, Pigweed, Palmer [3, 26]: 50
- Plant response rating, Pigweed, Palmer [3, 20]: 0
- Plant response rating, Pigweed, Palmer [3, 22]: 98
- Plant response rating, Dayflower, VA [4, 19]: 10
- Plant response rating, Dayflower, VA [4, 25]: 70
- Plant response rating, Dayflower, VA [4, 26]: 80
- Plant response rating, Dayflower, VA [4, 20]: 5
- Plant response rating, Dayflower, VA [4, 21]: 65
- Plant response rating, Dayflower, VA [4, 22]: 70
- Plant response rating, Field Bindweed [5, 19]: 0
- Plant response rating, Field Bindweed [5, 25]: 60
- Plant response rating, Field Bindweed [5, 26]: 80
- Plant response rating, Field Bindweed [5, 20]: 0
- Plant response rating, Field Bindweed [5, 21]: 90
- Plant response rating, Field Bindweed [5, 22]: 75
- Plant response rating, Foxtail, Green [6, 15]: 98
- Plant response rating, Foxtail, Green [6, 17]: 65
- Plant response rating, Foxtail, Green [6, 24]: 100
- Plant response rating, Foxtail, Green [6, 18]: 100
- Plant response rating, Arrowleaf Sida [7, 19]: 0
- Plant response rating, Arrowleaf Sida [7, 25]: 60
- Plant response rating, Arrowleaf Sida [7, 26]: 60
- Plant response rating, Arrowleaf Sida [7, 21]: 50
- Plant response rating, Arrowleaf Sida [7, 22]: 70
- Plant response rating, Panicum, Fall [8, 19]: 95
- Plant response rating, Panicum, Fall [8, 25]: 70
- Plant response rating, Panicum, Fall [8, 23]: 98
- Plant response rating, Panicum, Fall [8, 26]: 90
- Plant response rating, Panicum, Fall [8, 20]: 90
- Plant response rating, Panicum, Fall [8, 22]: 100
- Plant response rating, Ragweed [9, 19]: 90
- Plant response rating, Ragweed [9, 25]: 70
- Plant response rating, Ragweed [9, 23]: 95
- Plant response rating, Ragweed [9, 26]: 75
- Plant response rating, Ragweed [9, 20]: 95
- Plant response rating, Ragweed [9, 22]: 98
- Plant response rating, Goosegrass [10, 15]: 60
- Plant response rating, Goosegrass [10, 17]: 35
- Plant response rating, Goosegrass [10, 24]: 75
- Plant response rating, Goosegrass [10, 18]: 90
- Plant response rating, Lambsquarters [11, 15]: 100
- Plant response rating, Lambsquarters [11, 17]: 100
- Plant response rating, Lambsquarters [11, 24]: 100
- Plant response rating, Lambsquarters [11, 18]: 98
- Plant response rating, Surinam Grass [12, 15]: 98
- Plant response rating, Surinam Grass [12, 16]: 100
- Plant response rating, Surinam Grass [12, 17]: 85
- Plant response rating, Surinam Grass [12, 18]: 98
- Plant response rating, Barnyardgrass [13, 19]: 20
- Plant response rating, Barnyardgrass [13, 25]: 50
- Plant response rating, Barnyardgrass [13, 26]: 60
- Plant response rating, Barnyardgrass [13, 20]: 20
- Plant response rating, Barnyardgrass [13, 21]: 65
- Plant response rating, Barnyardgrass [13, 22]: 90
- Plant response rating, Corn (corn (Zea mays); [19]): 0
- Plant response rating, Corn (corn (Zea mays); [25]): 5
- Plant response rating, Corn (corn (Zea mays); [26]): 5
- Plant response rating, Corn (corn (Zea mays); [20]): 0
- Plant response rating, Corn (corn (Zea mays); [21]): 0
- Plant response rating, Corn (corn (Zea mays); [22]): 0
- Plant response rating, Soybean (soybean (Glycine max); [19]): 0
- Plant response rating, Soybean (soybean (Glycine max); [25]): 50
- Plant response rating, Soybean (soybean (Glycine max); [23]): 0
- Plant response rating, Soybean (soybean (Glycine max); [26]): 60
- Plant response rating, Soybean (soybean (Glycine max); [20]): 0
- Plant response rating, Soybean (soybean (Glycine max); [22]): 0
- Plant response rating, Crabgrass, Brazil [14, 19]: 70
- Plant response rating, Crabgrass, Brazil [14, 25]: 50
- Plant response rating, Crabgrass, Brazil [14, 26]: 60
- Plant response rating, Crabgrass, Brazil [14, 20]: 70
- Plant response rating, Crabgrass, Brazil [14, 21]: 80
- Plant response rating, Crabgrass, Brazil [14, 22]: 90
